# Key:
# β-glucuronidase = target: T1, β-glucuronidase (Homo sapiens, UniProt P08236); test: Breath test: D5-ethanol in exhaled breath after intravenous probe administration (TD-GC-MS); type: in vivo; conditions: for D5-ethanol detected on breath: 2 mg/kg intravenous
# T1 construct: from tissue; host or cells: in vivo, human subjects (healthy subjects and a lung cancer patient); endogenous enzyme
# T1 sequence (P08236 23-651): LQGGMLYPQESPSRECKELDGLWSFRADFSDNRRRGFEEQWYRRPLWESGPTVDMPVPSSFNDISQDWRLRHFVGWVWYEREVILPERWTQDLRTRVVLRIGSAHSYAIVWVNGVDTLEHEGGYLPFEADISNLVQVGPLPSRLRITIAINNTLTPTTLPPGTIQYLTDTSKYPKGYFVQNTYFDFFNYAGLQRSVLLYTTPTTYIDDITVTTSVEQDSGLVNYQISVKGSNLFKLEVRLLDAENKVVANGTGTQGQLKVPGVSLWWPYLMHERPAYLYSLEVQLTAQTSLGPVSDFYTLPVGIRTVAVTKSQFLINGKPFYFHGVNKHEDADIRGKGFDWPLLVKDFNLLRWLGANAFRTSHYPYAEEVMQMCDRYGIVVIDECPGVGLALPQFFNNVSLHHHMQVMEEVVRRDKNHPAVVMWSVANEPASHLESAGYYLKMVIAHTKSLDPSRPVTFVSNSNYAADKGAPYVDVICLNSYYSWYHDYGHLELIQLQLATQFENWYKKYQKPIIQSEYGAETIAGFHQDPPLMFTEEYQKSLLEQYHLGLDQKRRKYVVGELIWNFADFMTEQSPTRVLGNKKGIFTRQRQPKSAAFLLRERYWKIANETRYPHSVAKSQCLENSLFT
# Description: D5-ethyl-βD-glucuronide was administered to healthy subjects and a lung cancer patient at a concentration of 2 mg/kg. Administration was intravenous.
# The concentration of the metabolite was then measured in breath samples. Breath samples were collected using ReCIVA® Breath Sampler at the indicated times following probe administration. Following breath collection sorbent tubes were removed from ReCIVA®, capped off and sent to Owlstone Medical for analysis. At Owlstone Medical the sorbent tubes were analysed for D5-ethanol using TD-GC-MS.
# blood cells = test: D5-ethanol release in blood incubated with D5-EG or D5-EG-ME (headspace measurement); type: cell-based; conditions: human blood, 37° C., 2 hours
# Description: Aim—The following experiment was performed to compare the levels of D5-ethanol produced by blood cells from both D5-ethyl-βD-glucuronide and the D5-ethyl-βD-glucuronide-methyl ester impurity. To understand how the probe behaves in human blood. To determine the background cleavage of the probe (D5-ethyl-βD-glucuronide) and the methyl ester (D5-ethyl-βD-glucuronide-methyl ester) in blood at different concentrations. The cleaved D5-ethanol was extracted from the headspace of the blood and measured with the D5-ethanol analytical method.
# • Dilute D5-ethyl-βD-glucuronide in PBS to 1 ug/ul. • Dilute 10 ul of this in 90 ul PBS to 100 ng/ul to use for smaller doses. • Blood drawn on the same day will be despatched to OML after it has been screened. • Aliquot 600 ul of blood into ITEX headspace vials. 10 vials for probe samples and 10 vials for methyl ester samples. • Add indicated concentration of D5-ethyl-βD-glucuronide (Table 1) and D5-ethyl-bD-glucuronide meth methyl ester (Table 2) in each vial. • Incubate all samples at 37° C. for 2 hours in the water bath. • After 2 hours add 100 uM D-saccharic acid-1,4-lactone with a syringe through septum of each ITEX vial and mix gently to inhibit β-glucuronidase activity and put on ice (4° C.) • Place samples on ITEX autosampler and measure D5-ethanol with D5-ethanol analytical method
# Results—β-glucuronidase is only expected to be present intracellularly in blood cells. D5-ethyl-βD-glucuronide (D5-EG) is not cell permeable and would therefore not enter into the cells to get cleaved by b-glucuronidase to produce D5-ethanol. Low D5-ethanol levels are therefore expected in blood when incubated with D5-ethyl-βD-glucuronide.
# D5-ethyl-βD-glucuronide-methyl ester (D5-EG-ME) is expected to be more cell permeable. If this is the case it would be able to enter into the cell to get cleaved by intracellular β-glucuronidase resulting in an increased in D5-ethanol production.
# [1] = test system: tumor specific extracellular β-glucuronidase; conditions: healthy versus tumor bearing mice; cited from earlier work
# [2] = highest concentration tested (FIG. 2)
D5-ethanol detected on breath (β-glucuronidase; healthy controls),D5-ethanol detected on breath (β-glucuronidase; lung cancer patient (Stage IIA)),"earliest time at which the metabolite (D5-ethanol) can be detected in breath after administration (β-glucuronidase; lung cancer patient, 2 mg/kg intravenous (FIG. 6)) [min]",SMILES,D5-ethanol production from blood cells (blood cells; [2]),D5-ethanol signal in breath [1],D5-ethanol production from blood cells (blood cells; second highest concentration tested (FIG. 2))
No D5-ethanol was detected,A D5 ethanol signal was detected,10,"[2H]C([2H])([2H])C([2H])([2H])O[C@@H]1O[C@H](C(=O)O)[C@@H](O)[C@H](O)[C@H]1O [D5-EG, D5-ethyl-βD-glucuronide]",only a small amount of D5-ethanol were produced,discriminatory D5-ethanol signal in the breath of mice with tumors,
,,,"[2H]C([2H])([2H])C([2H])([2H])O[C@@H]1O[C@H](C(=O)OC)[C@@H](O)[C@H](O)[C@H]1O [D5-EG-ME, D5-ethyl-βD-glucuronide-methyl ester]",much higher D5-ethanol levels produced,,much higher D5-ethanol levels produced

# From patent US20250228878A1, “METHOD FOR THE SYNTHESIS OF EVOC PROBES” (OWLSTONE MEDICAL LIMITED, priority 2021, published 2025)
